Tests used:
[1] = system: PAF-induced platelet aggregation (platelet-rich plasma); assay: PAF antagonism, in vitro platelet aggregation assay; type: cell-based; settings: dose giving 50 % PAF antagonism, human PRP, PAF 1-5×10^-8 M
Method: Blood was centrifuged at 110×g for 15 min. and the supernatant PRP carefully transferred into a polypropylene tube. Platelet-poor-plasma (PPP) was prepared by centrifuging PRP at 12,000×g for 2 min. in a Beckman Microfuge B. PRP was used within 3 hours of drawing the blood.
Platelet Aggregation Assay: When an aggregating agent such as PAF is added to PRP, platelets aggregate. An aggregometer quantifies this aggregation by measuring light (infra-red) transmission through PRP and comparing to PPP. The aggregation assays were performed using a dual-channel aggregometer (Model 440, Chrono-Log Corp., Hayertown, Pa.). PRP (0.45 ml) in aggregometer curettes was continually stirred (37° C.). Solutions of test compounds or vehicle were added to the PRP, and after incubation for 2 min., 10-15 μl aliquots of PAF solution were added so as to achieve a final concentration of 1-5×10^-8 M. Incubations were continued until the increase in light transmission reached a maximum (usually about 2 min). Values for inhibition were calculated by comparing maximal aggregation obtained in the absence and the presence of the compound. For each experiment, a standard PAF antagonist, such as alprazolam, was used as a positive internal control. […] The test results are shown below in Tables Ia, Ib and Ic.

[2] = system: histamine-induced lethality; assay: Antihistamine activity: prevention of histamine-induced lethality in guinea pigs; type: in vivo; settings: Cavia porcellus, guinea pig; for responders at 5 mg/kg: oral dose 5 mg/kg PO
Method: C. ANTIHISTAMINE ACTIVITY ASSAY
Prevention of Histamine-Induced Lethality in Guinea Pigs. Some of compounds shown below in Table I also were evaluated for antihistamine activity by their ability to protect female albino guinea pigs (250-350 g) against death induced by the intravenous injection of histamine dihydrochloride at 1.1 mg/kg, which is approximately twice the LD99. Doses of the antagonists were administered orally to separate groups of fasted animals 1 hour prior to the challenge with histamine and protection from death recorded for 30 minutes after histamine. ED50 values were determined for each drug by probit analysis.

[3] = CNS activity: antagonism of physostigmine lethality; settings: mouse, in vivo; mice, oral, 30 minutes prior to physostigmine 1.0 mg/kg s.c.
Method: D. Antagonism of Physostigmine Lethality. The physostigmine-induced lethality test is indicative of CNS activity and the test described is a modification of the technique reported by COLLIER et al., Br. J. Pharmac., 32, 295-310 (1968). physostigmine salicylate (1.0 mg/kg s.c.) produces 100% lethality when administered to mice grouped 10 per plastic cage (11×26×13 cm). Test agents were administered orally 30 minutes prior to physostigmine. The number of survivors were counted 20 minutes after physostigmine administration.

[4] = CNS activity: antagonism of acetic acid writhing; settings: mouse, in vivo; mice, oral, 15 minutes before acetic acid i.p.
Method: E. Antagonism of Acetic Acid Writhing. The acetic acid writhing test is a second test useful for determining CNS activity, and is essentially that described by HENDERSHOT and FORSAITH, J. Pharmac. […] Mice were injected with 0.6% aqueous acetic acid at 10 mg/kg i.p. 15 minutes after oral administration of the test drug. The number of writhes for each animal was counted during a 10 minute period starting 3 minutes after acetic acid treatment. A writhe was defined as a sequence of arching of the back, pelvic rotation and hind limb extension.

[5] = CNS activity: antagonism of electro-convulsive shock (ECS); settings: mouse, in vivo; mice, oral, one hour before ECS; read-out: ECS test ED50
Method: F. Antagonism of Electro-Convulsive Shock (ECS). The ECS test is a third test useful for determining CNS activity. […] One hour after oral administration of the test drug or vehicle, mice were administered a 13 mA, 60 cycle a.c. electroconvulsant shock (ECS) for 0.2 seconds via corneal electrodes.

PAF-induced bronchospasm = PAF-induced bronchospasm in guinea pigs; type: in vivo; settings: guinea pig
Method: PAF is also a known bronchoconstrictive agent in mammals.
B. PAF-INDUCED BRONCHOSPASM IN GUINEA PIGS
Non-sensitized guinea Digs were fasted overnight, and the following morning were anesthetized with 0.9 ml/kg i.p. of dialurethane (0.1 g/ml of diallybarbituric acid, 0.4 g/ml of ethylurea and 0.4 g/ml of urethane). The trachea was cannulated and the animals were ventilated by a Harvard rodent respirator at 55 strokes/min. with a stroke volume of 4 ml. A side arm to the tracheal cannula was connected to a Harvard pressure transducer to obtain a continuous measure of intratracheal pressure, which was recorded on a Harvard Polygraph. The jugular vein was cannulated for the administration of compounds. The animals were challenged i.v. with PAF (0.4 ug/kg in isotonic saline containing 0.25% BSA) and the peak increase in inflation pressure that occurred within 5 min. after challenge was recorded. Test compounds were administered either orally (2 hrs. prior to PAF as a suspension in 0.4% methylcellulose vehicle) or intravenously (10 min. prior to PAF as a solution in dimethylsulfoxide).

[6] = 0.5 h, 1 hour before histamine 1.1 mg/kg i.v., read-out: Antihistaminic Activity, % Survival

Row | Structure (SMILES) | IC50 [1] [µM] | ED50 ([2]; oral, probit analysis, read-out: Antihistaminic Activity, ED50) [mg/kg] | ED50 [3] [mg/kg] | ED50 [4] [mg/kg] | ED50 [5] [mg/kg] | inhibition of PAF-induced bronchospasm (PAF-induced bronchospasm; 1 mg/kg intravenously) [%] | responders at 1 mg/kg ([2]; 0.5 h, oral dose 1 mg/kg PO, 1 hour before histamine 1.1 mg/kg i.v., read-out: Antihistaminic Activity, % Survival) [%] | responders at 5 mg/kg [2, 6] [%] | inhibition of PAF-induced bronchospasm (PAF-induced bronchospasm; 3 mg/kg (iv)) [%]
1 | CN1CCC(=C2c3ccccc3CCc3cccnc32)CC1 [R^3 = H, R^4 = H, A = H, CZR = CH3, reference compound] | > 100 | 0.009 | 6.1 | 8.9 | > 80 | – | – | – | –
2 | CC(=O)N1CCC(=C2c3ccc(Cl)cc3CCc3cccnc32)CC1 [Z = O, R = CH3, R^3 = Cl, R^4 = H, 8-chloro-11-(1-acetyl-4-piperidylidene)-6,11-dihydro-5H-benzo[5,6]cyclohepta[1,2-b]pyridine] | 0.7 | – | – | > 160 | > 320 | 75 | 60 | 100 | –
3 | CC(=O)N1CCC(=C2c3ccc(F)cc3CCc3cccnc32)CC1 [R = CH3, Z = O, R^3 = F, R^4 = H, 8-fluoro-11-(1-acetyl-4-piperidylidene)-6,11-dihydro-5H-benzo[5,6]cyclohepta[1,2-b]pyridine] | 0.7 | – | – | – | – | – | – | 20 | 99
4 | CC(=O)N1CCC(=C2c3cc(F)ccc3CCc3cccnc32)CC1 [R = CH3, Z = O, R^3 = H, R^4 = F, 9-fluoro-11-(1-acetyl-4-piperidylidene)-6,11-dihydro-5H-benzo[5,6]cyclohepta[1,2-b]pyridine] | 0.9 | – | – | – | – | – | – | 0 | 97
